Experimental data published in PubChem BioAssay AID1259407 (Chemical Carcinogenesis Research Information System (CCRIS), 2018).
The source made the active and inactive calls. The rule behind the calls is not given here.

Test system: CCRIS mutagenicity, Ames/micronucleus/aberration tests
Test: CCRIS mutagenicity studies
[1] = Test System: AMES SALMONELLA TYPHIMURIUM, Strain/Indicator: TA97, Metabolic Activation: NONE, Method: PREINCUBATION
[2] = Test System: AMES SALMONELLA TYPHIMURIUM, Strain/Indicator: TA97, Metabolic Activation: RAT, LIVER, S-9, AROCLOR 1254 (10 OR 30%), Method: PREINCUBATION
[3] = Test System: AMES SALMONELLA TYPHIMURIUM, Strain/Indicator: TA98, Metabolic Activation: NONE, Method: PREINCUBATION
[4] = Test System: AMES SALMONELLA TYPHIMURIUM, Strain/Indicator: TA98, Metabolic Activation: NONE, Method: STANDARD PLATE
[5] = Test System: AMES SALMONELLA TYPHIMURIUM, Strain/Indicator: TA98, Metabolic Activation: RAT, LIVER, S-9, AROCLOR 1254 (10 OR 30%), Method: PREINCUBATION
[6] = Test System: AMES SALMONELLA TYPHIMURIUM, Strain/Indicator: TA100, Metabolic Activation: NONE, Method: PREINCUBATION
[7] = Test System: AMES SALMONELLA TYPHIMURIUM, Strain/Indicator: TA100, Metabolic Activation: NONE, Method: STANDARD PLATE
[8] = Test System: AMES SALMONELLA TYPHIMURIUM, Strain/Indicator: TA100, Metabolic Activation: RAT, LIVER, S-9, AROCLOR 1254 (10 OR 30%), Method: PREINCUBATION
[9] = Test System: AMES SALMONELLA TYPHIMURIUM, Strain/Indicator: TA1535, Metabolic Activation: NONE, Method: PREINCUBATION
[10] = Test System: AMES SALMONELLA TYPHIMURIUM, Strain/Indicator: TA1535, Metabolic Activation: RAT, LIVER, S-9, AROCLOR 1254 (10 OR 30%), Method: PREINCUBATION

Q: For CCCCCCCC/C=C\CCCCCCCC(=O)O, which mutagenic call (Test System: AMES SALMONELLA TYPHIMURIUM, Strain/Indicator: TA97, Metabolic Activation: HAMSTER, LIVER, S-9, AROCLOR 1254 (10 OR 30%), Method: PREINCUBATION) is on record?
A: inactive; negative

Q: And the mutagenic call [1]?
A: inactive; negative

Q: What about the mutagenic call [2] of the same compound?
A: inactive; negative

Q: And the mutagenic call (Test System: AMES SALMONELLA TYPHIMURIUM, Strain/Indicator: TA98, Metabolic Activation: HAMSTER, LIVER, S-9, AROCLOR 1254 (10 OR 30%), Method: PREINCUBATION)?
A: inactive; negative

Q: What about the mutagenic call [3] of the same compound?
A: inactive; negative

Q: What about the mutagenic call [4] of the same compound?
A: inactive; negative

Q: And the mutagenic call [5]?
A: inactive; negative

Q: And the mutagenic call (Test System: AMES SALMONELLA TYPHIMURIUM, Strain/Indicator: TA98, Metabolic Activation: RAT, LIVER, S-9, KC 500, Method: PREINCUBATION)?
A: inactive; negative

Q: What about the mutagenic call (Test System: AMES SALMONELLA TYPHIMURIUM, Strain/Indicator: TA98, Metabolic Activation: S-9, PHENOBARBITAL, Method: STANDARD PLATE) of the same compound?
A: inactive; negative

Q: And the mutagenic call (Test System: AMES SALMONELLA TYPHIMURIUM, Strain/Indicator: TA100, Metabolic Activation: HAMSTER, LIVER, S-9, AROCLOR 1254 (10 OR 30%), Method: PREINCUBATION)?
A: inactive; negative

Q: What about the mutagenic call [6] of the same compound?
A: inactive; negative

Q: And the mutagenic call [7]?
A: inactive; negative

Q: And the mutagenic call [8]?
A: inactive; negative

Q: What about the mutagenic call (Test System: AMES SALMONELLA TYPHIMURIUM, Strain/Indicator: TA100, Metabolic Activation: RAT, LIVER, S-9, KC 500, Method: PREINCUBATION) of the same compound?
A: inactive; negative

Q: And the mutagenic call (Test System: AMES SALMONELLA TYPHIMURIUM, Strain/Indicator: TA100, Metabolic Activation: S-9, PHENOBARBITAL, Method: STANDARD PLATE)?
A: inactive; negative

Q: And the mutagenic call (Test System: AMES SALMONELLA TYPHIMURIUM, Strain/Indicator: TA1535, Metabolic Activation: HAMSTER, LIVER, S-9, AROCLOR 1254 (10 OR 30%), Method: PREINCUBATION)?
A: inactive; negative

Q: What about the mutagenic call [9] of the same compound?
A: inactive; negative

Q: And the mutagenic call (Test System: AMES SALMONELLA TYPHIMURIUM, Strain/Indicator: TA1535, Metabolic Activation: NONE, Method: STANDARD PLATE)?
A: inactive; negative

Q: What about the mutagenic call [10] of the same compound?
A: inactive; negative

Q: And the mutagenic call (Test System: AMES SALMONELLA TYPHIMURIUM, Strain/Indicator: TA1535, Metabolic Activation: RAT, LIVER, S-9, KC 500, Method: PREINCUBATION)?
A: inactive; negative

Q: And the mutagenic call (Test System: AMES SALMONELLA TYPHIMURIUM, Strain/Indicator: TA1535, Metabolic Activation: S-9, PHENOBARBITAL, Method: STANDARD PLATE)?
A: inactive; negative

Q: What about the mutagenic call (Test System: AMES SALMONELLA TYPHIMURIUM, Strain/Indicator: TA1537, Metabolic Activation: NONE, Method: PREINCUBATION) of the same compound?
A: inactive; negative

Q: What about the mutagenic call (Test System: AMES SALMONELLA TYPHIMURIUM, Strain/Indicator: TA1537, Metabolic Activation: NONE, Method: STANDARD PLATE) of the same compound?
A: inactive; negative

Q: What about the mutagenic call (Test System: AMES SALMONELLA TYPHIMURIUM, Strain/Indicator: TA1537, Metabolic Activation: RAT, LIVER, S-9, KC 500, Method: PREINCUBATION) of the same compound?
A: inactive; negative

Q: And the mutagenic call (Test System: AMES SALMONELLA TYPHIMURIUM, Strain/Indicator: TA1537, Metabolic Activation: S-9, PHENOBARBITAL, Method: STANDARD PLATE)?
A: inactive; negative

Q: What about the mutagenic call (Test System: AMES SALMONELLA TYPHIMURIUM, Strain/Indicator: TA1538, Metabolic Activation: NONE, Method: PREINCUBATION) of the same compound?
A: inactive; negative

Q: And the mutagenic call (Test System: AMES SALMONELLA TYPHIMURIUM, Strain/Indicator: TA1538, Metabolic Activation: RAT, LIVER, S-9, KC 500, Method: PREINCUBATION)?
A: inactive; negative

Q: What about the mutagenic call (Test System: E. COLI, Strain/Indicator: WP2 UVRA, Metabolic Activation: NONE, Method: PREINCUBATION) of the same compound?
A: inactive; negative

Q: What about the mutagenic call (Test System: E. COLI, Strain/Indicator: WP2 UVRA, Metabolic Activation: NONE, Method: STANDARD PLATE) of the same compound?
A: inactive; negative

Q: What about the mutagenic call (Test System: E. COLI, Strain/Indicator: WP2 UVRA, Metabolic Activation: RAT, LIVER, S-9, KC 500, Method: PREINCUBATION) of the same compound?
A: inactive; negative

Q: And the mutagenic call (Test System: E. COLI, Strain/Indicator: WP2 UVRA, Metabolic Activation: S-9, PHENOBARBITAL, Method: STANDARD PLATE)?
A: inactive; negative

Q: Which mutagenic call (Test System: Chinese hamster lung cells, Strain/Indicator: CHL (HPRT)/6-Thioguanine, Metabolic Activation: None, Method: Standard Plate) does the source give for OC[C@H]1O[C@@H](Oc2ccc(O)cc2)[C@H](O)[C@@H](O)[C@@H]1O here?
A: inactive; negative

Q: With NNC(=O)c1[nH]c2ccccc2c1N as the compound, how does the mutagenic call [1] read?
A: active; positive

Q: And the mutagenic call (Test System: AMES SALMONELLA TYPHIMURIUM, Strain/Indicator: TA97, Metabolic Activation: S-9 (10%), Method: PREINCUBATION)?
A: inactive; negative

Q: What about the mutagenic call [3] of the same compound?
A: active; positive

Q: And the mutagenic call (Test System: AMES SALMONELLA TYPHIMURIUM, Strain/Indicator: TA98, Metabolic Activation: S-9 (10%), Method: PREINCUBATION)?
A: inactive; negative

Q: And the mutagenic call [6]?
A: inactive; negative

Q: What about the mutagenic call (Test System: AMES SALMONELLA TYPHIMURIUM, Strain/Indicator: TA100, Metabolic Activation: S-9 (10%), Method: PREINCUBATION) of the same compound?
A: inactive; negative

Q: What about the mutagenic call (Test System: AMES SALMONELLA TYPHIMURIUM, Strain/Indicator: TA102, Metabolic Activation: NONE, Method: PREINCUBATION) of the same compound?
A: inactive; negative

Q: And the mutagenic call (Test System: AMES SALMONELLA TYPHIMURIUM, Strain/Indicator: TA102, Metabolic Activation: S-9 (10%), Method: PREINCUBATION)?
A: inactive; negative

Q: For CC(C)(C)OOC(C)(C)C, which mutagenic call (Test System: AMES SALMONELLA TYPHIMURIUM, Strain/Indicator: TA97, Metabolic Activation: HAMSTER, LIVER, S-9, AROCLOR 1254 (10%), Method: PREINCUBATION) is on record?
A: inactive; negative

Q: And the mutagenic call (Test System: AMES SALMONELLA TYPHIMURIUM, Strain/Indicator: TA97, Metabolic Activation: HAMSTER, LIVER, S-9, AROCLOR 1254 (30%), Method: PREINCUBATION)?
A: inactive; negative

Q: What about the mutagenic call [1] of the same compound?
A: inactive; negative

Q: What about the mutagenic call [2] of the same compound?
A: inactive; negative

Q: And the mutagenic call (Test System: AMES SALMONELLA TYPHIMURIUM, Strain/Indicator: TA98, Metabolic Activation: HAMSTER, LIVER, S-9, AROCLOR 1254 (10%), Method: PREINCUBATION)?
A: inactive; negative

Q: And the mutagenic call (Test System: AMES SALMONELLA TYPHIMURIUM, Strain/Indicator: TA98, Metabolic Activation: HAMSTER, LIVER, S-9, AROCLOR 1254 (30%), Method: PREINCUBATION)?
A: inactive; negative

Q: And the mutagenic call [3]?
A: inactive; negative

Q: What about the mutagenic call [5] of the same compound?
A: inactive; negative

Q: And the mutagenic call (Test System: AMES SALMONELLA TYPHIMURIUM, Strain/Indicator: TA100, Metabolic Activation: HAMSTER, LIVER, S-9, AROCLOR 1254 (10%), Method: PREINCUBATION)?
A: inactive; negative

Q: What about the mutagenic call (Test System: AMES SALMONELLA TYPHIMURIUM, Strain/Indicator: TA100, Metabolic Activation: HAMSTER, LIVER, S-9, AROCLOR 1254 (30%), Method: PREINCUBATION) of the same compound?
A: inactive; negative

Q: And the mutagenic call [6]?
A: inactive; negative

Q: And the mutagenic call [8]?
A: inactive; negative

Q: What about the mutagenic call (Test System: AMES SALMONELLA TYPHIMURIUM, Strain/Indicator: TA1535, Metabolic Activation: HAMSTER, LIVER, S-9, AROCLOR 1254 (10%), Method: PREINCUBATION) of the same compound?
A: inactive; negative

Q: And the mutagenic call (Test System: AMES SALMONELLA TYPHIMURIUM, Strain/Indicator: TA1535, Metabolic Activation: HAMSTER, LIVER, S-9, AROCLOR 1254 (30%), Method: PREINCUBATION)?
A: inactive; negative

Q: What about the mutagenic call [9] of the same compound?
A: inactive; negative

Q: What about the mutagenic call [10] of the same compound?
A: inactive; negative

Q: O=Nc1ccc2c(c1)Cc1ccccc1-2 was tested. Which mutagenic call [4] did it give?
A: active; positive

Q: What about the mutagenic call (Test System: AMES SALMONELLA TYPHIMURIUM, Strain/Indicator: TA98, Metabolic Activation: RAT, LIVER, S-9, AROCLOR 1254, Method: STANDARD PLATE) of the same compound?
A: active; positive

Q: What about the mutagenic call (Test System: AMES SALMONELLA TYPHIMURIUM, Strain/Indicator: TA98, Metabolic Activation: S-9, Method: STANDARD PLATE) of the same compound?
A: active; positive

Q: What about the mutagenic call [7] of the same compound?
A: active; positive

Q: And the mutagenic call (Test System: AMES SALMONELLA TYPHIMURIUM, Strain/Indicator: TA100, Metabolic Activation: S-9, Method: STANDARD PLATE)?
A: active; positive

Q: And the mutagenic call (Test System: AMES SALMONELLA TYPHIMURIUM, Strain/Indicator: TA1538, Metabolic Activation: NONE, Method: STANDARD PLATE)?
A: active; positive

Q: With Oc1ccc2c(c1)[nH]c1ccccc12 as the compound, how does the mutagenic call (Test System: CHINESE HAMSTER OVARY, Strain/Indicator: CHO-K1-BH4 (HGPRT)/6-THIOGUANINE, Metabolic Activation: RAT, LIVER, S-9, AROCLOR (4%)) read?
A: active; positive
